Assay results from patent US20230014226A1, “NEW COMPOUNDS AND METHODS” (BenevolentAI Bio Limited, priority 2019, published 2023).
Entries after “also recorded” stand apart in the source; their conditions may differ.

How the values were obtained:
[1] = biological target: T1, recombinant human P450 enzyme 1A1 (Homo sapiens, UniProt P04798); test: Formation of reactive metabolites (glutathione adduct) by CYP1A1 with human liver cytosol; assay type: in vitro ADME; settings: human liver cytosol + recombinant CYP1A1, NADPH and GSH
T1 construct: host or cells: Bacterial membranes (bactosomes), inferred from the named control preparation
T1 sequence (P04798 1-512): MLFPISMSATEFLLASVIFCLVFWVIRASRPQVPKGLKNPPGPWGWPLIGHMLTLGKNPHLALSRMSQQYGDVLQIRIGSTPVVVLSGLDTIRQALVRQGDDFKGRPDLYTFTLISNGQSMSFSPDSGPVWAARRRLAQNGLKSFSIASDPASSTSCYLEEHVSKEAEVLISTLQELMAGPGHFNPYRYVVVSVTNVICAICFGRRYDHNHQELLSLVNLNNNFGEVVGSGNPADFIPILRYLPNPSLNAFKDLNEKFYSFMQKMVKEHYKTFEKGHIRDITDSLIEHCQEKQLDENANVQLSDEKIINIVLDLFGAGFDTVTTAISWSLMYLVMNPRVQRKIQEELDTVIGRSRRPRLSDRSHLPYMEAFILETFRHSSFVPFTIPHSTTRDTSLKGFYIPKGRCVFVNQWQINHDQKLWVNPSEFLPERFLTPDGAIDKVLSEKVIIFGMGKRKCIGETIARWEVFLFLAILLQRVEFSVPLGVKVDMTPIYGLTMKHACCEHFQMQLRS
Experimental: Investigations into the potential for test compound to form a reactive metabolite were performed using an adapted method detailed by De Lin et al. Briefly, test compound was pre-incubated (n=2; 50 μM substrate concentration) at 37° C. for 5 min with mixed-gender human liver cytosol (1 mg/mL total protein concentration) in 100 mM phosphate buffer (pH 7.4) with 5 mM MgCl2 in the presence of recombinant human P450 enzyme 1A1 (100 nM), in the presence and absence of 5 mM glutathione. At the end of the pre-incubation period, 2 mM NADPH was added to each sample and the mixture incubated at 37° C. for 60 min. Immediately following the addition of NADPH and after the 60 min incubation period, aliquots of each sample were mixed with MeCN (containing internal standard) to terminate the reaction and precipitate the proteins.
Samples were mixed, centrifuged and following appropriate dilution, supernatants were analysed by LC-MS utilising a high-resolution mass spectrometer to perform metabolite identification and characterisation analysis.

HUVEC = HUVEC Cell Viability (CV) assay; assay type: cell-based, human; settings: Homo sapiens, alamarBlue
Experimental: Cells are seeded at 10,000 cells/well in 96-well plates in HUVEC specific cell culture media. Cells are plated and cultured overnight (16-24 h) at 37° C. After the overnight culture, cells are washed and fed with the Assay Medium. Test compounds are applied and incubated with the cells for the designated time period, after which the cell viability is measured by alamarBlue method. […] The final DMSO concentration is 1%.
Fluorescence readings are recorded after the test compound and alamarBlue incubation. The excitation and emission wavelengths are 530 nm and 590 nm, respectively.
The percent of control is calculated by comparing the readings in the presence of the test compound to the vehicle control. Subsequently, the percent inhibition is calculated by subtracting the percent control activity from 100. IC50 values (concentration causing a half-maximal inhibition of the control value) are determined by non-linear regression analysis of the concentration-response curves using the Hill equation.
The reference compound used for this assay is Staurosporine.

- metabolites identified as products of oxidation and glutathione conjugation [1]: Two very minor metabolites
SMILES: Cc1ccc(C(=O)Nc2cn(C(C)C)cn2)cc1C#Cc1cccnc1 [Example 25, N-(1-isopropylimidazol-4-yl)-4-methyl-3-[2-(3-pyridyl)ethynyl]benzamide]
- formation of direct glutathione adduct ([1]; 50 μM, 60 min): does not form a glutathione adduct; also recorded: no products of direct glutathione conjugation were observed
- IC50 (HUVEC): 45 µM
